For 3 compounds, inhibition results are on record in ChEMBL document CHEMBL5696442, “Discovery of type II inhibitors of TGFβ-activated kinase 1 (TAK1) and mitogen-activated protein kinase kinase kinase kinase 2 (MAP4K2)” (J Med Chem, 2015).

Assay [1] has as its target Wee1-like protein kinase (Homo sapiens) (UniProt P30291). The experiment in a line: Inhibition of Wee1 Lys2 labeling site in human A-375 cells at 0.05 uM by KiNativ Profiling analysis relative to control. The assay is classed as cell-based.
Assay [2] concerns Tyrosine-protein kinase ABL1 (Homo sapiens), P00519 [Q252H]. The experiment in a line: Inhibition of ABL1 Q252H mutant (unknown origin) at 10 uM by Ambit Kinomescan binding assay relative to control.
The target of assay [3] is T1, Mitogen-activated protein kinase kinase kinase 6 (Homo sapiens) (UniProt O95382).
T1 sequence (whole entry): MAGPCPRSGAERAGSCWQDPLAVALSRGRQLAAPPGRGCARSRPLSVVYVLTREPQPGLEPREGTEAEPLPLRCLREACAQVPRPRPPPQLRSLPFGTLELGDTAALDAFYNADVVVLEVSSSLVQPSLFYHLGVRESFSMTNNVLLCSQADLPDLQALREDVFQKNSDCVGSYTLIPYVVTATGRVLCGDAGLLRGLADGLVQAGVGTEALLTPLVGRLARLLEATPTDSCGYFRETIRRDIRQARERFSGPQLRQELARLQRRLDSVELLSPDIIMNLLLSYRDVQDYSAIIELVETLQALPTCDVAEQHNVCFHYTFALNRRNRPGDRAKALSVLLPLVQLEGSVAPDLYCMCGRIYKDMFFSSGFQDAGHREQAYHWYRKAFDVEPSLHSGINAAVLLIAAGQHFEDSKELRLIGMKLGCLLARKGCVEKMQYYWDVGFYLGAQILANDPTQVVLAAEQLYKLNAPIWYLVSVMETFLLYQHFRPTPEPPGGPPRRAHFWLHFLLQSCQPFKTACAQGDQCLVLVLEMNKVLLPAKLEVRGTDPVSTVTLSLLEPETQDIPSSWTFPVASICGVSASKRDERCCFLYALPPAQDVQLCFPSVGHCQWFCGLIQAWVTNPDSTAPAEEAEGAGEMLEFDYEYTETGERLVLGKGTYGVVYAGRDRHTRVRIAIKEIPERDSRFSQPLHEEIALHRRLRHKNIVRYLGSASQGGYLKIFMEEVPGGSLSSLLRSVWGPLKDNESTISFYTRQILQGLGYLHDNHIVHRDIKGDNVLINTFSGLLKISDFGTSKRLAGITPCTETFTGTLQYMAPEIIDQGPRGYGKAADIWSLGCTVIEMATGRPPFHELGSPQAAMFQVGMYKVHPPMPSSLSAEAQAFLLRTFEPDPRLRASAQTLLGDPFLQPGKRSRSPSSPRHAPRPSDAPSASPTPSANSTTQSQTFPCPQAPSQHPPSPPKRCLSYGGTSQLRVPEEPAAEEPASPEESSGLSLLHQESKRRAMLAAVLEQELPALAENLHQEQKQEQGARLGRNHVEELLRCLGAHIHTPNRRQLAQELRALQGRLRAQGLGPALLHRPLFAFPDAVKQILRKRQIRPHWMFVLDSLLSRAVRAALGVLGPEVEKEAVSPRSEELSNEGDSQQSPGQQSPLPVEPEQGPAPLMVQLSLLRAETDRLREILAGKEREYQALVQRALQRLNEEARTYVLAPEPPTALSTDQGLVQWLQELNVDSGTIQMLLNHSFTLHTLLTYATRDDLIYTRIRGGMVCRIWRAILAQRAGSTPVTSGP
The experiment in a line: Inhibition of MAP3K6 Lys1 labeling site harbouring IAIKEIPER in human A-375 cells at 0.05 uM by KiNativ Profiling analysis relative to control. The assay is classed as cell-based.

The target of assay [4] is T2, EKC/KEOPS complex subunit TP53RK (Homo sapiens) (UniProt Q96S44).
T2 sequence (whole entry): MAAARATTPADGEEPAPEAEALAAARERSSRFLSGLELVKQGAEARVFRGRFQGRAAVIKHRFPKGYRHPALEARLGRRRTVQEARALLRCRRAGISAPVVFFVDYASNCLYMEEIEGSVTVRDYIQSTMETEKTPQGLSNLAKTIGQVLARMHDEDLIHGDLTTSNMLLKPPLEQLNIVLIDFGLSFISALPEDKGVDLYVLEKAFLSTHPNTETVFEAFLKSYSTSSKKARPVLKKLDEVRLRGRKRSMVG
The assay is described as follows: Inhibition of PRPK ATP Loop labeling site in human A-375 cells at 5 uM by KiNativ Profiling analysis relative to control. The assay is classed as cell-based.

Assay [5] concerns the target Microtubule-associated serine/threonine-protein kinase 1 (Homo sapiens) (UniProt Q9Y2H9). The assay is described as follows: Inhibition of MAST1 Lys2 labeling site in human Huh-7 cells at 1 uM by KiNativ Profiling analysis relative to control.
Assay [6] has as its target STE20-related kinase adapter protein alpha (Homo sapiens) (UniProt Q7RTN6). The assay is described as follows: Inhibition of STLK5 ACT labeling site in human Huh-7 cell lysate at 1 uM by KiNativ Profiling analysis relative to control. The format is subcellular.

Microtubule-associated serine/threonine-protein kinase 1 (Homo sapiens), sequence (Q9Y2H9 whole entry, looked up): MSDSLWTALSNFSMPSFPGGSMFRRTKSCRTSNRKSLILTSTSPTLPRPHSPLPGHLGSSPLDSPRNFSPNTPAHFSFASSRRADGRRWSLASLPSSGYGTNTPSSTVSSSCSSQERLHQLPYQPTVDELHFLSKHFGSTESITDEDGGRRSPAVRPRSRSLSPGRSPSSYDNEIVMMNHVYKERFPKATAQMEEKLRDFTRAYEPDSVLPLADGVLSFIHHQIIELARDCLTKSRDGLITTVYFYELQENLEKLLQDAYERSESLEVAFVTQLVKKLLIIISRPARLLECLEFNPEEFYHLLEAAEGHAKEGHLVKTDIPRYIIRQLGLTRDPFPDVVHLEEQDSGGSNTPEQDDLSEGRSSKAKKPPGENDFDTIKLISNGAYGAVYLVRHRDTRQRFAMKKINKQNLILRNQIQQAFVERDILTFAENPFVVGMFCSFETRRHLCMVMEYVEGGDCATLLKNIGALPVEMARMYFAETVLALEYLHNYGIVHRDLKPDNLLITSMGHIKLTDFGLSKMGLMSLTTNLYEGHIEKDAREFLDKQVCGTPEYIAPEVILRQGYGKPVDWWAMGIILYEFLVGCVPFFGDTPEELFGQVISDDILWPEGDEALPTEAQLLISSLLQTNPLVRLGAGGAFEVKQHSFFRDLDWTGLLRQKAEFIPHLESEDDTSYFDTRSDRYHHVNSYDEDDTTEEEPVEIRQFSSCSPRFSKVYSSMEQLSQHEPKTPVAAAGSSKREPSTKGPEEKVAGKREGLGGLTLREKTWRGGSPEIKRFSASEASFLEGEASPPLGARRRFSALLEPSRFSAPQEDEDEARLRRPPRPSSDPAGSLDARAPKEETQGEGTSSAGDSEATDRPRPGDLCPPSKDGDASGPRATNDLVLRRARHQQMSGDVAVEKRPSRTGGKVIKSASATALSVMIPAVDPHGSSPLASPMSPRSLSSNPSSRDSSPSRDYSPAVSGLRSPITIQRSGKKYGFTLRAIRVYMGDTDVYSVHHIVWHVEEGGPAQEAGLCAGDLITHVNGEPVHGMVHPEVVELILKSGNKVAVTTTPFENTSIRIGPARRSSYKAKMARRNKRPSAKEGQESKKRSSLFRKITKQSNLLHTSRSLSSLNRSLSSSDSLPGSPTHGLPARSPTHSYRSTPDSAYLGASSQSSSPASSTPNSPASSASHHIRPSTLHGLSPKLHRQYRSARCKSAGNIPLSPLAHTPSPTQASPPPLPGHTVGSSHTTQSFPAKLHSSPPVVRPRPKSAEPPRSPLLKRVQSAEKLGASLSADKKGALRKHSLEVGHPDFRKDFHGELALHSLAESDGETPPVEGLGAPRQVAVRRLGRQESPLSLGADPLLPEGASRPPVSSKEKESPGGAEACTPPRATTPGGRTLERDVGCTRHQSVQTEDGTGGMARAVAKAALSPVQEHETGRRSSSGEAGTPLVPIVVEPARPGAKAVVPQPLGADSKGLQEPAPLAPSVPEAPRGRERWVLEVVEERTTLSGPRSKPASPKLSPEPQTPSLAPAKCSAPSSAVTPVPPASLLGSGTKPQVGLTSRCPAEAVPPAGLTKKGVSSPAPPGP
Wee1-like protein kinase (Homo sapiens), sequence (P30291 whole entry, looked up): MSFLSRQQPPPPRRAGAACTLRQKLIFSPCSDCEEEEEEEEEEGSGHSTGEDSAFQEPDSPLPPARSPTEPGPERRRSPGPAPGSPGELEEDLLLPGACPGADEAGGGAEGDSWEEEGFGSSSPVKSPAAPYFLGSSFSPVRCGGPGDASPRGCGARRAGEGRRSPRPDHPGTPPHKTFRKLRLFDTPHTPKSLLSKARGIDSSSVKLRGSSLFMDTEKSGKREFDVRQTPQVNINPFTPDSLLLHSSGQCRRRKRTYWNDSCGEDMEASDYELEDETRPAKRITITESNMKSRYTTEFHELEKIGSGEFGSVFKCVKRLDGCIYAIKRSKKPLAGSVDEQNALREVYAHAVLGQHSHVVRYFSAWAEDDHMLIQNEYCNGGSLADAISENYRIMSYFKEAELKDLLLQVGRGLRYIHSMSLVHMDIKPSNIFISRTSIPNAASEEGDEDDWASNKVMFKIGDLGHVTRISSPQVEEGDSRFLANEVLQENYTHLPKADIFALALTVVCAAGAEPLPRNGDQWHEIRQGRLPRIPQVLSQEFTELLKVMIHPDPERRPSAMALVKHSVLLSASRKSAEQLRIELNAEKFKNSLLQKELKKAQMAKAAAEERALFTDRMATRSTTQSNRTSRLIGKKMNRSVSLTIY
STE20-related kinase adapter protein alpha (Homo sapiens), sequence (Q7RTN6 whole entry): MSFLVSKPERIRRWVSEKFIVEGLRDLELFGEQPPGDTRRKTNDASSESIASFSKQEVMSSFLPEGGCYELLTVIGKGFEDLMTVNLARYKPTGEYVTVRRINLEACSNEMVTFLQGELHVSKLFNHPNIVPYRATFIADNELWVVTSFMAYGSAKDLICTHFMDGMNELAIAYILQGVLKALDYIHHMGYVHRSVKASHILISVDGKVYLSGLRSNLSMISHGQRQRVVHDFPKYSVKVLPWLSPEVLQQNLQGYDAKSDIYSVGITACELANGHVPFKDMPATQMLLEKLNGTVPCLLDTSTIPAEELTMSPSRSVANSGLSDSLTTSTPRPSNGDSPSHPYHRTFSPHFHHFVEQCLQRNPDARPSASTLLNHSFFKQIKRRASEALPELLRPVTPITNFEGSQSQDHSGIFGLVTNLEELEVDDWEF

On to `CCN1CCN(Cc2ccc(NC(=O)c3ccc(C)c(/C=C/c4cnc5[nH]ccc5c4OC)c3)cc2C(F)(F)F)CC1`, for which the inhibition in assay [1] was determined as 19.2%.

For `CCN1CCN(Cc2ccc(NC(=O)c3ccc(C)c(Oc4ccnc5[nH]ccc45)c3)cc2C(F)(F)F)CC1`, the inhibition in assay [2] was found to be 0.4%; in assay [3], 10.8%; in assay [4], 8%.

As for `CNc1cc(Oc2cc(C(=O)Nc3cc(N4CCN(C)CC4)cc(C(F)(F)F)c3)ccc2C)ncn1`, the inhibition was determined as 53.8% in assay [5] and 5.3% in assay [6].
